Data from the NIST ThermoML archive (doi:10.1016/j.jct.2011.05.030).
± gives the expanded uncertainty stated by the source.

How the values were obtained:
[1] = Molar enthalpy of transition or fusion; conditions: Crystal; DSC
[2] = Crystal; for vapor or sublimation pressure: Calculated from knudsen effusion weight loss; for Normal melting temperature: DTA

c1ccc2c(c1)-c1cccc3c1c-2cc1ccccc13 [benz[e]acephenanthrylene]
Conditions | Molar enthalpy of transition or fusion [kcal/mol] | Normal melting temperature [°C]
[1] | 4.37 ± 0.669 | –
[2] | – | 168.00 ± 0.5

[2]
Conditions | vapor or sublimation pressure [kPa]
364.1 K | 4.7e-06 ± 2.5e-07
369.3 K | 8.12e-06 ± 4.2e-07
374.2 K | 1.46e-05 ± 7e-07
377.2 K | 1.9e-05 ± 1e-06
379.2 K | 2.41e-05 ± 1.2e-06
382.2 K | 3.21e-05 ± 1.6e-06
384.2 K | 3.95e-05 ± 2e-06
387.2 K | 5.4e-05 ± 2.7e-06
389.1 K | 6.22e-05 ± 3.1e-06
392.1 K | 8.51e-05 ± 4.3e-06
394.2 K | 0.000101 ± 5e-06
397.1 K | 0.000131 ± 7e-06
399.1 K | 0.000159 ± 8e-06
404.1 K | 0.00023 ± 1.2e-05
409 K | 0.000356 ± 1.8e-05
414.1 K | 0.000533 ± 2.7e-05

c1cc2ccc3ccc4ccc5cccc6c(c1)c2c3c4c56 [benzo[ghi]perylene]
Conditions | Molar enthalpy of transition or fusion [kcal/mol] | Normal melting temperature [°C]
[1] | 3.9 ± 0.669 | –
[2] | – | 272.50 ± 0.5

[2]
Conditions | vapor or sublimation pressure [kPa]
399.1 K | 4.16e-06 ± 2.2e-07
404 K | 7e-06 ± 3.6e-07
409 K | 1.15e-05 ± 6e-07
414.4 K | 1.79e-05 ± 9e-07
419 K | 2.83e-05 ± 1.4e-06
424 K | 4.36e-05 ± 2.2e-06
429 K | 6.54e-05 ± 3.3e-06
434.1 K | 0.000104 ± 5e-06
439 K | 0.000138 ± 7e-06
441 K | 0.000207 ± 1e-05
449.1 K | 0.000303 ± 1.5e-05
454.1 K | 0.000432 ± 2.2e-05

c1ccc2cc3c(cc2c1)-c1cccc2cccc-3c12 [benzo[k]fluoranthene]
Conditions | Molar enthalpy of transition or fusion [kcal/mol] | Normal melting temperature [°C]
[1] | 6.33 ± 0.693 | –
[2] | – | 217.00 ± 0.5

[2]
Conditions | vapor or sublimation pressure [kPa]
384.2 K | 1.63e-05 ± 8e-07
389.2 K | 2.42e-05 ± 1.2e-06
394.1 K | 3.62e-05 ± 1.8e-06
399.1 K | 5.62e-05 ± 2.8e-06
404 K | 8.86e-05 ± 4.4e-06
409 K | 0.000136 ± 7e-06
411 K | 0.000157 ± 8e-06
419 K | 0.000383 ± 1.9e-05
424 K | 0.000557 ± 2.8e-05

c1ccc2c(c1)ccc1cc3c(ccc4ccccc43)cc12 [dibenz[a,h]anthracene]
Conditions | Molar enthalpy of transition or fusion [kcal/mol] | Normal melting temperature [°C]
[1] | 5.86 ± 0.693 | –
[2] | – | 269.50 ± 0.5

[2]
Conditions | vapor or sublimation pressure [kPa]
399.2 K | 5.11e-06 ± 2.7e-07
404 K | 5.53e-06 ± 2.9e-07
409.1 K | 9.22e-06 ± 4.7e-07
414 K | 1.39e-05 ± 7e-07
419.1 K | 3.95e-05 ± 2e-06
424.2 K | 5.45e-05 ± 2.8e-06
429.2 K | 8.89e-05 ± 4.5e-06
434.2 K | 0.000112 ± 6e-06
439.1 K | 0.000174 ± 9e-06
444.1 K | 0.00028 ± 1.4e-05
449.1 K | 0.000369 ± 1.9e-05

c1ccc2c(c1)-c1ccc3ccc4cccc5cc-2c1c3c45 [indeno[1,2,3-cd]pyrene]
Conditions | Molar enthalpy of transition or fusion [kcal/mol] | Normal melting temperature [°C]
[1] | 5.47 ± 0.669 | –
[2] | – | 162.00 ± 0.5

[2]
Conditions | vapor or sublimation pressure [kPa]
384.1 K | 5.38e-06 ± 2.8e-07
389.1 K | 7.96e-06 ± 4.1e-07
394.2 K | 1.3e-05 ± 7e-07
399.2 K | 2.19e-05 ± 1.1e-06
404.1 K | 3.28e-05 ± 1.7e-06
409.1 K | 5.33e-05 ± 2.7e-06
414.1 K | 8.53e-05 ± 4.3e-06
419.1 K | 0.000133 ± 7e-06
424.1 K | 0.000201 ± 1e-05
